Test results as given in patent US20230102554A1 (GB002, INC., priority 2019, published 2023).

Tests used:
[1] = target: T1, Human PDGFRα, cytoplasmic domain (GST-PDGFRα) (Homo sapiens, UniProt P16234); assay: Human PDGFRα biochemical inhibition assay (off-chip Mobility Shift Assay)
T1 construct: made in house

[2] = target: T2, Human PDGFRβ, cytoplasmic domain (GST-PDGFRβ) (Homo sapiens, UniProt P09619); assay: Human PDGFRβ biochemical inhibition assay (off-chip Mobility Shift Assay)
T2 construct: made in house
Outline: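 GST-tagged cytoplasmic domain (aa 557-1106) from baculovirus was incubated 1 h at room temperature with compound, CSKtide, ATP at Km and Mg²⁺ in HEPES buffer, pH 7.5. Phosphorylated and unphosphorylated peptide were separated by off-chip mobility shift, and the product ratio P/(P+S) gave percent inhibition.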

T2 sequence (P09619 with tags, fused parts or gaps): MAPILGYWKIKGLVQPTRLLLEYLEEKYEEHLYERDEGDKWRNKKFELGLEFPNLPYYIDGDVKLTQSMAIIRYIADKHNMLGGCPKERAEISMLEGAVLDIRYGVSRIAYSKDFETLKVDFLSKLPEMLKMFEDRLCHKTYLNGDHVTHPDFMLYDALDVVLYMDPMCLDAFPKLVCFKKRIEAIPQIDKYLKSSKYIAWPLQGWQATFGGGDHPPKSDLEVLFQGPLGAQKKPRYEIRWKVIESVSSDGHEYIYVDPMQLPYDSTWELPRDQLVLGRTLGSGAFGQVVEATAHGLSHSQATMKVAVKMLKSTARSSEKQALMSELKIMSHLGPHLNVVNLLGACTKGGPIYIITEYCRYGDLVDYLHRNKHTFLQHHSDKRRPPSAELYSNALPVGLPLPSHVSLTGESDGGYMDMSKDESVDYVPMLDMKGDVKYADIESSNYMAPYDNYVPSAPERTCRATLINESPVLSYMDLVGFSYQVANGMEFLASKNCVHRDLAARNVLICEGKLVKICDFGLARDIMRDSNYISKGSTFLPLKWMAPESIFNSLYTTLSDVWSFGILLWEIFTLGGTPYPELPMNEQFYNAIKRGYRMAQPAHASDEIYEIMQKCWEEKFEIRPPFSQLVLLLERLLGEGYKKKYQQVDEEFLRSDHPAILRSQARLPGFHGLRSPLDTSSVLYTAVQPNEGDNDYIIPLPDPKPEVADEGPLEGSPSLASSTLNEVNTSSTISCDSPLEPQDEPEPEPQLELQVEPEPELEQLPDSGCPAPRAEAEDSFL
T1 sequence (P16234 550-1089 T674I): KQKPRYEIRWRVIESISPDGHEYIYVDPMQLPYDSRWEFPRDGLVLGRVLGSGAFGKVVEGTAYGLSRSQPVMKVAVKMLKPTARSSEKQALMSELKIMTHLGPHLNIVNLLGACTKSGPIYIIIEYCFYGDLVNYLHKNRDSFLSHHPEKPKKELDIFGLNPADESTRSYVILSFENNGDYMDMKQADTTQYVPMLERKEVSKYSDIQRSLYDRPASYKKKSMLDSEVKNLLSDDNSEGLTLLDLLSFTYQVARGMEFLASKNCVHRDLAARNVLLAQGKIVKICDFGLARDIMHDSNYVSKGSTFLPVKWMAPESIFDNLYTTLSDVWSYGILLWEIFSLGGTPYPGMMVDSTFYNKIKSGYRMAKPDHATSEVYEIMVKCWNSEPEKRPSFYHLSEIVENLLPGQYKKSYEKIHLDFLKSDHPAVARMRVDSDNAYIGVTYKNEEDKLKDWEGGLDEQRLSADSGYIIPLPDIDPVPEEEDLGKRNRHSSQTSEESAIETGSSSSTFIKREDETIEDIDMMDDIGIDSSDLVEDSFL

Compound	IC50 [1]	IC50 [2]
Cc1cncc(C(=O)Nc2cccc([C@H](C)Nc3cnc4[nH]cc(-c5cncnc5)c4n3)c2)c1 [Compound 593, (S)-5-methyl-N-(3-(1-((7-(pyrimidin-5-yl)-5H-pyrrolo [2,3-b]pyrazin-2-yl)amino)ethyl)phenyl)nicotinamide]	< 300 nM	< 300 nM
C[C@H](Nc1cnc2[nH]ccc2n1)c1cccc(NC(=O)c2ccc(C3CC3)nc2)c1 [Compound 594, (S)-N-(3-(1-((5H-pyrrolo[2,3-b]pyrazin-2-yl)amino)ethyl)phenyl)-6-cyclopropylnicotinamide]	< 300 nM	< 300 nM
C[C@H](Nc1cnc2[nH]ccc2n1)c1cccc(NC(=O)c2ccc(OC(F)F)nc2)c1 [Compound 595, (S)-N-(3-(1-((5H-pyrrolo[2,3-b]pyrazin-2-yl)amino)ethyl)phenyl)-6-(difluoromethoxy)nicotinamide]	< 300 nM	< 300 nM
C[C@H](Nc1cnc2[nH]ccc2n1)c1cc(NC(=O)c2ccc(OC(F)F)nc2)ccc1F [Compound 596, (S)-N-(3-(1-((5H-pyrrolo[2,3-b]pyrazin-2-yl)amino)ethyl)-4-fluorophenyl)-6-(difluoromethoxy)nicotinamide]	< 300 nM	< 300 nM
C[C@H](Nc1cnc2[nH]ccc2n1)c1cc(NC(=O)c2cnn(C3CCC3)c2)ccc1F [Compound 597, (S)-N-(3-(1-((5H-pyrrolo[2,3-b]pyrazin-2-yl)amino)ethyl)-4-fluorophenyl)-1-cyclobutyl-1H-pyrazole-4-carboxamide]	< 300 nM	< 300 nM
C[C@H](Nc1cnc2[nH]ccc2n1)c1cccc(NC(=O)c2cnn(C3CCC3)c2)c1 [Compound 598, (S)-N-(3-(1-((5H-pyrrolo[2,3-b]pyrazin-2-yl)amino)ethyl)phenyl)-1-cyclobutyl-1H-pyrazole-4-carboxamide]	< 300 nM	< 300 nM
C[C@H](Nc1cnc2[nH]ccc2n1)c1cc(NC(=O)c2ccc(C3CC3)nc2)ccc1F [Compound 599, (S)-N-(3-(1-((5H-pyrrolo[2,3-b]pyrazin-2-yl)amino)ethyl)-4-fluorophenyl)-6-cyclopropylnicotinamide]	< 300 nM	< 300 nM
Cc1cncc(C(=O)Nc2cccc([C@H](C)Nc3cnc4[nH]c(C5CC5)nc4c3)c2)c1 [Compound 601, (S)-N-(3-(1-((2-cyclopropyl-3H-imidazo[4,5-6]pyridin-6-yl)amino)ethyl)phenyl)-5-methylnicotinamide]	< 300 nM	< 300 nM
Cc1cncc(C(=O)Nc2cccc([C@H](C)Nc3cnc4[nH]c(-c5cnn(C)c5)nc4c3)c2)c1 [Compound 602, (S)-5-methyl-N-(3-(1-((2-(1-methyl-1H-pyrazol-4-yl)-3H-imidazo[4,5-b]pyridin-6-yl)amino)ethyl)phenyl) nicotinamide]	< 300 nM	< 300 nM
Cc1cncc(C(=O)Nc2cccc([C@H](C)Nc3cnc4[nH]c(-c5cnn(C)c5)nc4n3)c2)c1 [Compound 603, (S)-5-methyl-N-(3-(1-((2-(1-methyl-1H-pyrazol-4-yl)-1H-imidazo[4,5-b]pyrazin-5-yl)amino)ethyl)phenyl) nicotinamide]	< 300 nM	< 300 nM
Cc1cncc(C(=O)Nc2cccc([C@H](C)Nc3cnc4ccoc4c3)c2)c1 [Compound 604, (S)-N-(3-(1-(furo[3,2-b]pyridin-6-ylamino)ethyl)phenyl)-5-methylnicotinamide]	< 300 nM	300 to 1000 nM
Cc1cncc(C(=O)Nc2cccc([C@H](C)Nc3cnc4ccoc4n3)c2)c1 [Compound 605, (S)-N-(3-(1-(furo[2,3-b]pyrazin-3-ylamino)ethyl)phenyl)-5-methylnicotinamide]	< 300 nM	< 300 nM
Cc1cncc(C(=O)Nc2cccc([C@H](C)Nc3cnc4ccsc4c3)c2)c1 [Compound 606, (S)-5-methyl-N-(3-(1-(thieno[3,2-b]pyridin-6-ylamino)ethyl)phenyl) nicotinamide]	< 300 nM	< 300 nM
Cc1cncc(C(=O)Nc2cccc([C@H](C)Nc3cnc4ccsc4n3)c2)c1 [Compound 607]	< 300 nM	< 300 nM
Cc1cc2ncc(N[C@@H](C)c3cccc(NC(=O)c4ccc(OC(F)F)nc4)c3)nc2s1 [Compound 608, (S)-6-(difluoromethoxy)-N-(3-(1-((6-methylthieno[2,3-b]pyrazin-3-yl)amino)ethyl)phenyl)nicotinamide]	< 300 nM	< 300 nM
Cc1cc2ncc(N[C@@H](C)c3cccc(NC(=O)c4cnn(C5CCC5)c4)c3)nc2s1 [Compound 609, (S)-1-cyclobutyl-N-(3-(1-((6-methylthieno[2,3-b]pyrazin-3-yl)amino)ethyl)phenyl)-1H-pyrazole-4-carboxamide]	< 300 nM	< 300 nM

Compound	IC50 [1]	IC50 [2]
Cc1cc2ncc(N[C@@H](C)c3cccc(NC(=O)c4ccc(C5CC5)nc4)c3)nc2s1 [Compound 610, (S)-6-cyclopropyl-N-(3-(1-((6-methylthieno[2,3-b]pyrazin-3-yl)amino)ethyl)phenyl) nicotinamide]	< 300 nM	< 300 nM
Cc1cc2ncc(N[C@@H](C)c3cc(NC(=O)c4ccc(OC(F)F)nc4)ccc3F)nc2s1 [Compound 611, (S)-6-(difluoromethoxy)-N-(4-fluoro-3-(1-((6-methylthieno[2,3-b]pyrazin-3-yl)amino)ethyl)phenyl) nicotinamide]	< 300 nM	< 300 nM
Cc1cc2ncc(N[C@@H](C)c3cc(NC(=O)c4ccc(C5CC5)nc4)ccc3F)nc2s1 [Compound 612, (S)-6-cyclopropyl-N-(4-fluoro-3-(1-((6-methylthieno[2,3-b]pyrazin-3-yl)amino)ethyl)phenyl)nicotinamide]	< 300 nM	< 300 nM
Cc1cc2ncc(N[C@@H](C)c3cc(NC(=O)c4cnn(C5CCC5)c4)ccc3F)nc2s1 [Compound 613, (S)-1-cyclobutyl-N-(4-fluoro-3-(1-((6-methylthieno[2,3-b]pyrazin-3-yl)amino)ethyl)phenyl)-1H-pyrazole-4-carboxamide]	< 300 nM	< 300 nM
Cc1cc2ncc(N[C@@H](C)c3cc(NC(=O)c4ccc(C(F)(F)F)nc4)ccc3F)nc2o1 [Compound 614, (S)-N-(4-fluoro-3-(1-((6-methylfuro[2,3-b]pyrazin-3-yl)amino)ethyl)phenyl)-6-(trifluoromethyl)nicotinamide]	< 300 nM	< 300 nM
Cc1cc2ncc(N[C@@H](C)c3cc(NC(=O)c4ccc(C(F)(F)F)nc4)ccc3F)nc2s1 [Compound 615, (S)-N-(4-fluoro-3-(1-((6-methylthieno[2,3-b]pyrazin-3-yl)amino)ethyl)phenyl)-6-(trifluoromethyl)nicotinamide]	< 300 nM	< 300 nM
C[C@H](Nc1cnc2cc(C3CC3)sc2n1)c1cc(NC(=O)c2ccc(C(F)(F)F)nc2)ccc1F [Compound 616, (S)-N-(3-(1-((6-cyclopropylthieno[2,3-b]pyrazin-3-yl)amino)ethyl)-4-fluorophenyl)-6-(trifluoromethyl)nicotinamide]	< 300 nM	< 300 nM
C[C@H](Nc1cnc2ccoc2n1)c1cc(NC(=O)c2ccc(C(F)(F)F)nc2)ccc1F [Compound 617, (S)-N-(4-fluoro-3-(1-(furo[2,3-b]pyrazin-3-ylamino)ethyl)phenyl)-6-(trifluoromethyl) nicotinamide]	< 300 nM	< 300 nM
C[C@H](Nc1cnc2cc(C(F)F)sc2n1)c1cc(NC(=O)c2ccc(C(F)(F)F)nc2)ccc1F [Compound 618, (S)-N-(3-(1-((6-(difluoromethyl)thieno[2,3-b]pyrazin-3-yl)amino)ethyl)-4-fluorophenyl)-6-(trifluoromethyl)nicotinamide]	< 300 nM	< 300 nM
CCc1cc2ncc(N[C@@H](C)c3cc(NC(=O)c4ccc(C(F)(F)F)nc4)ccc3F)nc2o1 [Compound 619, (S)-N-(3-(1-((6-ethylfuro[2,3-b]pyrazin-3-yl)amino)ethyl)-4-fluorophenyl)-6-(trifluoromethyl)nicotinamide]	< 300 nM	< 300 nM
CCc1cc2ncc(N[C@@H](C)c3cc(NC(=O)c4ccc(C(F)(F)F)nc4)ccc3F)nc2s1 [Compound 620, (S)-N-(3-(1-((6-ethylthieno[2,3-b]pyrazin-3-yl)amino)ethyl)-4-fluorophenyl)-6-(trifluoromethyl)nicotinamide]	< 300 nM	< 300 nM
CCn1cc2ncc(N[C@@H](C)c3cccc(NC(=O)Cc4cccc(Cl)c4)c3)nc2n1 [Compound 621, (S)-2-(3-chlorophenyl)-N-(3-(1-((2-ethyl-2H-pyrazolo[3,4-b]pyrazin-6-yl)amino)ethyl)phenyl)acetamide]	< 300 nM	< 300 nM
CCn1cc2ncc(N[C@@H](C)c3cccc(NC(=O)Cc4cccc(C)c4)c3)nc2n1 [Compound 622, (S)-N-(3-(1-((2-ethyl-2H-pyrazolo[3,4-b]pyrazin-6-yl)amino)ethyl)phenyl)-2-(m-tolyl) acetamide]	< 300 nM	< 300 nM
CCn1cc2ncc(N[C@@H](C)c3cccc(NC(=O)Cc4cncc(F)c4)c3)nc2n1 [Compound 623, (S)-N-(3-(1-((2-ethyl-2H-pyrazolo[3,4-b]pyrazin-6-yl)amino)ethyl)phenyl)-2-(5-fluoropyridin-3-yl)acetamide]	300 to 1000 nM	≥ 1000 nM
CCn1cc2ncc(N[C@@H](C)c3cccc(NC(=O)Cc4cccnc4)c3)nc2n1 [Compound 624, (S)-N-(3-(1-((2-ethyl-2H-pyrazolo[3,4-b]pyrazin-6-yl)amino)ethyl)phenyl)-2-(pyridin-3-yl)acetamide]	300 to 1000 nM	≥ 1000 nM
CCn1cc2ncc(N[C@@H](C)c3cccc(NC(=O)Cc4cccc(F)c4)c3)nc2n1 [Compound 625, (S)-N-(3-(1-((2-ethyl-2H-pyrazolo[3,4-b]pyrazin-6-yl)amino)ethyl)phenyl)-2-(3-fluorophenyl)acetamide]	< 300 nM	300 to 1000 nM
